According to patent US20110223132A1, “ISOTHIAZOLOQUINOLONES AND RELATED COMPOUNDS AS ANTI-INFECTIVE AGENTS” (priority 2003, published 2011):
Converted amounts (≈) assume the structure as drawn.

Columns and labels:
[1] = tested on: E. coli ATCC 25922; test: Minimum inhibitory concentration (MIC) assay, broth microdilution; assay type: cell-based; settings: Escherichia coli, ATCC25922; E. coli ATCC 25922, Mueller-Hinton II broth, 37° C., 18 to 24 hours
Protocol: (§1) The antimicrobial activity of the compounds of the invention may be evaluated by a number of methods, including the following visual minimum inhibitory concentration (MIC) assay. This assay determines the minimum concentration of compound required to inhibit growth of a bacterial strain. Whole-cell antibacterial activity is determined by broth microdilution using conditions recommended by the NCCLS (see National Committee for Clinical Laboratory Standards. 2001. Performance standards for antimicrobial susceptibility testing: 11th informational supplement. Vol. 21, no. 1, M100-S11. National Committee for Clinical Laboratory Standards, Wayne, Pa.). Test compounds are dissolved in DMSO and diluted 1:50 in Mueller-Hinton II broth (Becton-Dickinson) to produce a 256 μg/ml stock solution. In a 96-well microtiter plate, the compound solution is serially two-fold diluted in Mueller-Hinton II broth. After the compounds are diluted, a […] aliquot of the test organism (˜1×10^6 cfu/mL) is added to each well of the microtiter plate. The final test concentrations range from 0.125-128 μg/mL Inoculated plates are incubated in ambient air at 37° C. for 18 to 24 hours. The organisms selected for testing included laboratory strains S. aureus ATCC 29213 and E. coli ATCC 25922 (strains purchased from American Type Culture Collection, Manassas, Va.). The minimum inhibitory concentration (MIC) was determined as the lowest concentration of compound that inhibited visible growth of the test organism.

[2] = tested on: S. aureus ATCC 29213; test: as above; assay type: cell-based; settings: Staphylococcus aureus, ATCC29213; S. aureus ATCC 29213, Mueller-Hinton II broth, 37° C., 18 to 24 hours
Protocol: as §1

[3] = Compound cytotoxicity, cell viability staining with Alamar Blue; assay type: cell-based; settings: Chinese hamster, CHO cells (Chinese hamster ovary), positive control
Protocol: (§2) Optimal cell density is first determined by plating cells in a 96-well plate standard sterile tissue culture plates in 100 μl media, 10% FBS at six cell densities from 500 cells/well to 15,000 cells/well. A cell free well containing only media is used as a control. Cells are incubated at 37° C. in a 5% CO2 incubator for 24 hours. 10% culture volume (10 ul) of Alamar Blue (Biosource, DAL1100, 100 mL) is then added. Cells are incubated at 37° C. in a 5% CO2 incubator and read in a Victor V plate reader, 544 nm excitation, 590 nm emission, at 3, 4, and 24 hours after the addition of Alamar Blue. The cell number vs. change in fluorescence is plotted to determine linearity of signal vs. cell number. The optimal density varies between 500-15,000 cells/well depending on the specific cell type. The optimal density is selected based on the highest number of cells that is still in the linear response range. Cells are plated at optimal cell density in a standard sterile tissue culture 96 well plate, and incubated at 37° C., O/N in a 5% CO2 incubator. 12 to 48 hours post-plating media is removed. […] Plates are incubated 4 hours at 37° C. in a 5% CO2 incubator and read in a Victor V plate reader, 544 nm excitation, 590 nm emission. […] The change in fluorescence vs. concentration of test compound is plotted to determine the cytotoxicity of the compound.

[4] = as above; assay type: cell-based; settings: human, Hep 2 cells (laryngeal carcinoma), positive control
Protocol: as §2

Structure (SMILES)	MIC [1] [µg/mL]	MIC [2] [µg/mL]	further results
O=c1[nH]sc2c1c(=O)c1cc(F)c(C3=CCNCC3)cc1n2C1CC1	–	–	melting point: > 241 °C (dec.)
NC1CCc2cc(-c3cc4c(cc3F)c(=O)c3c(=O)[nH]sc3n4C3CC3)ccc2C1 (racemic) [Compound 31, (Rac)-7-(6-Amino-5,6,7,8-Tetrahydronaphthalen-2-Yl)-9-Cyclopropyl-6-Fluoro-9H-Isothiazolo[5,4-B]Quinoline-3,4-Dione]	–	–	melting point: > 257 °C (dec.)
O=c1[nH]sc2c1c(=O)c1cc(F)c(-c3ccccc3)cc1n2C1CC1 [Compound 32, 9-Cyclopropyl-6-fluoro-7-phenyl-9H-isothiazolo[5,4-b]quinoline-3,4-dione]	0.06 (≈ 0.17 µM)	0.007 (≈ 0.0199 µM)	–
O=c1[nH]sc2c1c(=O)c1cc(F)c(-c3cccnc3)cc1n2C1CC1 [Compound 33, 9-Cyclopropyl-6-fluoro-7-pyridin-3-yl-9H-isothiazolo [5,4-b]quinoline-3,4-dione]	0.003 (≈ 0.00849 µM)	0.007 (≈ 0.0198 µM)	–
O=C(O)c1cccc(-c2cc3c(cc2F)c(=O)c2c(=O)[nH]sc2n3C2CC2)c1 [Compound 34, 3-(9-Cyclopropyl-6-fluoro-3,4-dioxo-2,3,4,9-tetrahydro-isothiazolo[5,4-b]quinolin-7-yl)-benzoic acid]	1 (≈ 2.52 µM)	0.125 (≈ 0.315 µM)	–
CCOc1cccc(-c2cc3c(cc2F)c(=O)c2c(=O)[nH]sc2n3C2CC2)c1 [Compound 35, 9-Cyclopropyl-7-(3-ethoxy-phenyl)-6-fluoro-9H-isothiazolo[5,4-b]quinoline-3,4-dione]	1 (≈ 2.52 µM)	0.03 (≈ 0.0757 µM)	–
CC(C)(C)c1ccc(C(O)CCCN2CCC(C(O)(c3ccccc3)c3ccccc3)CC2)cc1 (stereo not drawn) [Terfenadine]	–	–	CC50 [3]: 4.3 to 6.5 µM; CC50 [4]: 3 to 5 µM
